Data set [1] deals with NF-κB and MAPK signaling in mouse articular chondrocytes. Kind of data set: IL-1β-induced NF-κB and MAPK signaling in chondrocytes (western blotting, densitometry). The format is cell-based. As to conditions: NCD 10, 50, 100 μM pretreatment 12 h, IL-1β 1 ng/mL 10 min. As to the method:
(§1) The total protein was extracted from the primary cultured chondrocytes using a lysis buffer, containing 150 mM NaCl, 1% NP-40, 50 mM Tris/HCl (pH 8.0), 0.2% sodium dodecyl sulfate, and 5 mM NaF, supplemented with protease and phosphatase inhibitor mixture (Roche, Madison, WI, USA). Proteins were separated using sodium dodecyl sulfate-polyacrylamide gel electrophoresis, and western blot analysis was performed using the following antibodies: goat anti‐Cox2 (sc‐1745; Santa Cruz Biotechnology, Dallas, TX, USA), mouse anti-Erk1/2 (610408; Becton Dickinson, NJ, USA), mouse anti-IκB [9242; Cell Signaling Technology (CST), MA, USA], mouse anti-p65 (8242; CST), mouse anti-phospho-p65 (3033; CST), mouse anti-p38 (#9212; CST), mouse anti-pp38 (#9215S; CST), mouse anti-c-Jun N-terminal kinase (Jnk) (#9252S; CST), mouse anti-pJnk (#9251S; CST), and mouse anti-pErk (#9101S; CST). Each signal was visualized using a SuperSignal West Dura Kit (Thermo Fisher Scientific, Waltham, MA, USA). Density analysis (AlphaEase FC 4.0; Alpha Innotech, CA, USA) was performed to calculate the relevant band intensities. Extracellular signal-regulated kinase (Erk) was used as the loading control ([28]).
Figure 6 NCD regulates NF-κB and MAPK signaling pathways induced by IL-1β in mouse chondrocytes. Articular chondrocytes were pretreated with NCD at different concentrations (0,10, 50, or 100 μM) for 12 h (n = 3) before being stimulated with IL-1β (1 ng/mL) for 10 min. Levels of phosphorylated Jnk (pJnk), phosphorylated Erk (pErk), and phosphorylated p38 (pp38) proteins were determined using western blotting. (A, B) Protein levels of IκB were detected using western blotting (A) and densitometry (B). JQ-1 (200 μM) was used as a positive control. All data were analyzed using one‐way analysis of variance with Bonferroni’s test and expressed as mean ± standard error of mean (SEM) (n = 3); *P < 0.05, **P < 0.01, ***P < 0.001, and ****P < 0.0001 compared to the control group.
A general note: A western blot detects proteins with antibodies after separation by electrophoresis.

The next data set deals with T1, BRD4 BD1 (Homo sapiens, UniProt O60885).
T1 construct: BRD3 BD2, BRD4 BD1, BRD4 BD2; biotin (biotinylated protein); made in house; host or cells: Escherichia coli BL21(DE3)
Kind of data set: Biosensor binding kinetics assay (Octet), BRD4 BD1. On the procedure: (§2) Binding kinetics were assessed using the Octet® R2 system (Sartorius, Göttingen, Germany). Superstreptavidin biosensors were loaded with biotinylated BRD2 BD1, BRD2 BD2, BRD3 BD1, BRD3 BD2, BRD4 BD1, BRD4 BD2, or biotin alone (as a negative control) in PBST buffer (phosphate-buffered saline containing 0.02% Tween 20 and 5% DMSO). The sensors were then dipped into compound solutions for 10 min. To evaluate association kinetics (kon), each sensor was exposed to serial dilutions of the protein for 180 s, followed by dipping them into PBST buffer to assess dissociation kinetics (koff). For control, a separate sensor loaded with the compound was dipped into PBST alone. Competition binding assays were performed by exposing the compound-loaded sensor to mixtures of proteins and test compounds.
In general terms: In BLI a coated tip is dipped into the sample, and binding shifts an interference pattern.

In data set [2] the test system is mouse primary articular chondrocytes. Kind of data set: Chondrocyte viability by lactate dehydrogenase (LDH) assay. As to conditions: 12 h, NCD 0, 10, 20, 50, 100 µM, JQ1 different concentrations. It counts as cell-based.
The next data set has as its target T2, BRD4 BD2 (Homo sapiens, UniProt O60885).
T2 construct: BRD3 BD2, BRD4 BD1, BRD4 BD2; biotin (biotinylated protein); made in house; host or cells: Escherichia coli BL21(DE3)
Kind of data set: Biosensor binding kinetics assay (Octet), BRD4 BD2. On the procedure:
as §2

A further data set has as its target T3, BRD3 (BD1 + BD2) (Homo sapiens, UniProt Q15059).
T3 construct: BRD3 (BD1 + BD2); purchased BPS Bioscience
Kind of data set: TR-FRET assay, BRD3 (BD1 + BD2). The note with it: lower signal = stronger binding. On the procedure: TR-FRET assays were conducted using kits specific for BRD2 (BD1 + BD2), BRD3 (BD1 + BD2), and BRD4 (BD1 + BD2) obtained from BPS Bioscience (San Diego, CA, USA). Bromodomain ligands were diluted in water, and master mixes were prepared by combining the diluted ligands with 1× BRD Homogeneous Assay Buffer. Thawed BRD proteins were also diluted with the same buffer. For each assay, 1.5 μL of the master mix was dispensed into wells of a microplate (Labcyte, San Jose, CA, USA), followed by the addition of 5 μL of diluted BRD protein to initiate the reaction. Plates were incubated at 20–22°C for 30–60 min. Subsequently, glutathione (GSH) acceptor beads and streptavidin-conjugated donor beads (both from PerkinElmer, Waltham, MA, USA) were diluted in 1× BRD Homogeneous Detection Buffer 1. Next, 10 μL of the acceptor bead solution was added to each well and incubated at 18°C for 30 min, followed by the addition of 10 μL of donor bead solution and a further incubation at 18°C for 15–30 min. Alpha particle counts were measured using an EnVision 2105 multimode plate reader (PerkinElmer).

In data set [3] the test system is IL-1β-induced Mmp3, Mmp13 and Cox2 expression in mouse articular chondrocytes. Kind of data set: IL-1β-induced Mmp3, Mmp13, Cox2 expression in chondrocytes (qRT-PCR, western blotting). It counts as cell-based. The note with it: IL-1β 1 ng/mL. As to the method: NCD was supplied by Benobio Co (Gyeonggi-do, Korea), and IL‐1β was purchased from GenScript (Piscataway, NJ, USA). NCDs were dissolved in phosphate-buffered saline (PBS) for oral administration or IA injection.
Total RNA was extracted from mouse articular chondrocytes using TRIzol (Molecular Research Center Inc., Cincinnati, OH, USA) and the primers used were for the MMPs, glyceraldehyde 3-phosphate dehydrogenase (GAPDH), and Cox2. Primers utilized were as follows: mouse Mmp3 (5′-TCCTGATGTTGGTGGCTTCAG-3′ and 5′-TGTCTTGGCAAATCCGGTGTA-3′); mouse Mmp13 (5′-TGATGGACCTTCTGGTCTTCTGG-3′ and 5′-CATCCA CATGG TTGGG AAGT TCT-3′); mouse Cox2 (5′-GGTCTGGTGCCTGGTCTGATGAT-3′ and 5′-GTCCTTTCAAGGAGAATGGTGC-3′); mouse Gapdh (5′-TCACT GCCAC CCAGA AGAC-3′ and 5′-TGTAG GCCAT GAGGT CCAC-3′). Gene transcript expression levels were normalized against that of Gapdh by qRT-PCR using SYBR premix ExTaq (Takara Bio, Shiga, Japan). Results were expressed as fold-changes relative to the expression in the control group ([20]).
as §1
A general note: Real-time PCR tracks product formation cycle by cycle.

Setting [4] is: NCD 10, 50, 100 µM, 12 h, qRT-PCR.

T3 sequence (Q15059 29-417 limits assumed): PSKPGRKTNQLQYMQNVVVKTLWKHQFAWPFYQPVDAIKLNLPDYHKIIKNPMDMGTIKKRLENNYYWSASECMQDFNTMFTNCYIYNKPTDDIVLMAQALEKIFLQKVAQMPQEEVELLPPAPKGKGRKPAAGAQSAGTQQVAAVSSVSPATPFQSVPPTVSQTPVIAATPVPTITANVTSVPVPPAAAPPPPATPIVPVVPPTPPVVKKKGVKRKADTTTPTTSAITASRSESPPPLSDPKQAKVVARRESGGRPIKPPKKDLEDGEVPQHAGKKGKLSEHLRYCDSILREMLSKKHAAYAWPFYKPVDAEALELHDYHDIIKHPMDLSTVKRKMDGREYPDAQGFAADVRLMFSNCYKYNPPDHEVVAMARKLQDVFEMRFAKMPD

On to `CNC(=O)CC1C(=O)NCCN1Cc1ccc(-c2ccccc2-c2cccc3c2CN(C)C3=O)o1` (stereo not shown) [NCD, N-methyl-2-(1-((5-(2-(2-methyl-1-oxoisoindolin-4-yl)phenyl)furan-2-yl)methyl)-3-oxopiperazin-2-yl)acetamide], for which, in data set [1], the “Degradation of IκB” value is reported as “effectively prevented”, the “Phosphorylation level of ERK” value is “markedly reduced”, the “Phosphorylation level of JNK” value is on record as “markedly reduced” and the “Phosphorylation of the p65 subunit” value is “significantly suppressed”. The p38 phosphorylation result in data set [1] is recorded as “remained largely unaffected”. Further, the Kd (commonly the constant that tells how readily two partners part at equilibrium) on BRD4 BD1 is over 1 µM. For the same compound, the “Cell viability / cytotoxicity (LDH assay)” value in data set [2] is reported as “no significant cytotoxic effects”. The compound further returned a Kd on BRD4 BD2 of over 1 µM. Further, the TR-FRET value at BRD3 (BD1 + BD2) is reported as over 100000 RLU. In addition, in data set [3] (setting [4]), the “Cox2 mRNA expression” value is reported as “marked, concentration-dependent suppression”; the “Mmp3 mRNA expression” value is listed as “marked, concentration-dependent suppression”; the “Mmp13 mRNA expression” value is listed as “marked, concentration-dependent suppression”. Besides, the “mRNA and protein levels of Cox2” value in data set [3] (NCD 50 and 100 µM) was “substantially reduced”.

The record behind these values is PMC12350126, “A novel carboxamide bromodomain inhibitor attenuates osteoarthritis via epigenetic repression of NF-κB and MAPK signaling” (Frontiers in Immunology, 2025).
